“Also recorded” adds a separate entry of the source.
Legend:
[1] = system: mouse ischemic hind limb; assay: Apoptotic cells in ischemic hind limb sections; format: in vivo; conditions: 1 μg/mice, 7 days post ligation, vs PBS
Protocol: FIG. 22 is a bar graph depicting the number of apoptotic cells per field in ischemic hind limb treated with ADOPep1 as a function of days after ischemia induction. Mice were subjected to hind limb ligation and PBS or ADOpep1 injection as described in the description of FIG. 21, hereinabove, and the number of apoptotic cells per microscopical filed was determined in histological sections prepared from either ligated and ADopep or PBS treated hind limbs of mice sacrificed at 7, 14 or 21 days post ischemia induction or from normal non-ischemic hind limbs.

[2] = system: GRP78 receptor on endothelial cells; assay: Competitive binding of ADOPeps to GRP78 (anti-GRP78 antibody ELISA on endothelial cells); parameters: species or system human; conditions: summary of 4 experiments
Protocol: FIG. 19 is a graph depicting inhibition of binding (in percentages) of anti-GRP78 antibody to endothelial cells by increasing concentrations of ADOPep1, 2, and 3 peptides. Endothelial cells were incubated for 2 hours with increasing concentrations of ADOPeps, following which the cells were incubated for another 1 hour with the 2 μg/ml of anti-GRP78 antibody and the amount of bound antibody on EC was detected using an ELISA reader.
Endothelial cells (20,000 per well) were seeded in 96 well plates for 24 hours in the presence of the complete medium. Plates were washed with PBS over night and rehydrated with PBS, 0.1% Na Azide and 5% FCS. ADOPep1, ADOPep2 and ADOPep3 were added to washed plates for 2 hours at room temperature at concentrations of 0.01, 0.1 and 1 microgram per ml. Anti-GRP78 antibody (goat polyclona IgG, Santa Cruz Biotechnology, Calif., USA) was added to the plates for 1 hour at room temperature at a concentration of 2 micrograms/ml per well. After washing, bound anti-GRP78 antibody was detected by incubation with anti-goat IgG Peroxidase conjugated (Jackson Immuneresearch Laboratories, PA, USA). After 5 washes with PBS-0.1% Tween 20, 100 μl/well of TMB+ Substrate-Chromogen (DAKOCytomation, CA, USA) was added for a maximum of 30 minutes. Reaction was stopped with 1N HCl. Color developed was determined by an ELISA reader at 450 nm.

[3] = system: endothelial cells (HUVEC); assay: Proliferation of endothelial cells under hypoxia ([H3]Thymidine incorporation); format: cell-based, human; conditions: 24 hours starvation, 10 ng/ml
Protocol: FIG. 5 is a graph depicting cell proliferation as a function of ADOPeps' concentration. Proliferation of endothelial cells (EC) under hypoxia conditions was measured by [H^3]Thymidine incorporation. Endothelial cells (12,000/well) in minimal growth medium were incubated for 24 hours in the presence of 1, 10 and 100 ng/ml of ADOPep1 (SEQ ID NO:2; red diamonds), 2 (SEQ ID NO:3; blue squares) and 3 (SEQ ID NO:4; green triangles) peptides.
HUVEC from passage 3 were used for proliferation experiments. Endothelial cells (15,000 cells/well) were seeded on 24-wells in the presence of endothelial cell growth medium (Promocell, Heidelberg, Germany) with supplements and incubated for 24 hours. After then, cells were exposed to 24 hours starvation in a medium free of supplements. ADOPeps were added at concentrations of 1, 10 and 100 ng/ml for 24 hours under hypoxic conditions. 2 μCi/well of Thymidine (SIGMA, Rehovot Israel) were added or over night incubation followed by 3 washes with PBS before harvesting at 37° C. with 300 μl/well of 0.5 M NaOH. Cell lysates were transferred to scintillation vials with 2 ml scintillation liquid Ultima Gold (Packard Bioscience, Meriden, USA) and counted in a β counter. Results were obtained as counts per minute (cpm).

[4] = system: endothelial cells; assay: CoCl2-induced apoptosis of endothelial cells (Annexin-FITC/PI FACS); format: cell-based, human; conditions: normoxia, 100 micromolar per 100,000 cells CoCl2, 10 ng/ml peptide 24 hours
Protocol: FIGS. 33a-f are representative FACS analyses depicting a specific inhibition of hypoxia-induced apoptosis of endothelial cells by ADOPep1. Endothelial cells in Petri dishes were incubated for 24 hours with 5% FCS in supplement-free endothelial cell growth medium under normoxia (FIGS. 33a and d), exposed to 24 hours hypoxia (Figures c and f) or incubated under normoxia with 100 micromolar per 100,000 cells CoCl2 (FIGS. 33b and e), in the absence (FIGS. 33a-c) or presence (FIGS. 33d-f) of 10 ng/ml Adopep1 peptide (for 24 hours). Cells were trypsinized and immediately re-suspended in PBS with 5% FCS and 0.1% Na-azide. Samples containing 100,000 cells were tested for apoptosis using the Annexin-FITC (X axis) and propidium iodide (Y axis) kit (Bender Medsystems, Vienna, Austria), according to manufacturer's instructions. Results were analyzed by FACScan (Beckton Dickinson).
FIG. 34 is a histogram depicting the FACS results of the experiments described in FIGS. 33a-f. Data represents average±SD of 2 experiments.

[5] = system: GRP78 in mouse ischemic hind limb; assay: GRP78-positive cells in ischemic hind limb sections; format: in vivo; conditions: 1 μg/mice, 7 to 14 days post ligation, vs PBS
Protocol: FIG. 21 is a bar graph depicting the mean number of GRP78-positive (GRP78+) cells per area in hind limb ischemia treated with ADOPep1 as a function of the days post induction of ischemia. Mice were subjected to hind limb ligation (the ischemic model) and after one day the mice were injected with either 1 μg/mice of ADOPep1, or 50 μl of PBS as control. The number of GRP78 positive cells was determined in histological sections prepared from ligated hind limbs (injected with ADOPep1 or PBS) of mice sacrificed at 7, 14 or 21 days post ischemia induction or normal untreated (non-ischemic) hind limbs.

[6] = system: mouse ischemic hind limb; assay: Mouse hind-limb ischemia model, laser Doppler blood perfusion; format: in vivo; conditions: 0.1 microgram/mouse i.m., day 21 after surgery, vs PBS
Protocol: A mouse hind limb model was created by excision of femoral artery of C57B1 mouse hind limb, the non-operated limb served as a control. ADOPep1 (SEQ ID NO:2; red symbols) and 3 (SEQ ID NO:4; green symbols) were injected intra-muscularly one day after surgery at 0.1 (squares) and 1 (circles) micrograms/mouse. Injection of PBS (black diamond) was used as a control. Blood flow was measured using a laser Doppler immediately (T0) or at 7 (T7), 14 (T14) and 21 (T21) days after surgery. The average perfusion of each limb was determined and the perfusion ratio [expressed as Relative Perfusion (ischemic left/control right leg)] was plotted against time.
A mouse hind limb ischemia model was used. Ischemia was created in the C57B1 strain mouse by ligation and excision of the femoral artery on the left hind limb. The right hind limb served as a control. A day after the operation ADOPep1 and 3 were injected intramuscular at a site close to the operation. […] The blood perfusion was measured using a Laser Doppler Blood perfusion analyzer (Perimed, Sweden) one day post operation and 7, 14, 21 days post operation. The average perfusion of each limb was computed and percent perfusion ratio was expressed as the ischemic (left)/control (right) percent perfusion ratio.

HWRRAHLLPRLP [ADOPep1, ADAM15 derived peptide, amino acids 286-297 of the metalloprotease domain]
number of apoptotic cells per field [1]: significant decrease
number of apoptotic cells per field ([1]; listed as ADoPep1): dramatically decreased
inhibition of binding of anti-GRP78 antibody to EC (in words) [2]: some degree of inhibition
proliferation of endothelial cells [3]: capable of inducing proliferation of EC
proliferation of endothelial cells ([3]; listed as ADOpep1): induced proliferation of endothelial cells
effect on CoCl2 induced apoptosis [4]: no effect on apoptosis induced by CoCl2; also recorded: not the CoCl2 induced apoptosis
effect on CoCl2 induced apoptosis ([4]; listed as AdoPep1): did not inhibit apoptosis of endothelial cells exposed to the apoptotic inducer Cobalt-Chloride
mean number of GRP78 positive cells [5]: significantly increased
mean number of GRP78 positive cells ([5]; listed as Adopep1): more significant increase in mean number of GRP78 positive cells
blood perfusion ratio (ischemic left/control right) [6]: significant increase in the blood perfusion ratio; also recorded: significant increase in blood perfusion (p<0.05)

Reference: patent publication US8741843B2, “Compositions and methods for inducing angiogenesis” (priority 2006, dated 2014)
